The source of these data is US8815829B2, “3′-azido purine nucleotide prodrugs for treatment of viral infections” (priority 2008, dated 2014).

For series [1], the system named is adenosine deaminase. As to the kind of experiment: Adenosine deaminase assay (deamination of nucleosides). The series is classed as in vitro ADME. The protocol:
In order to determine if these 6-substituted compounds are converted to G analogs by the enzyme adenosine deaminase, a series of enzyme kinetics experiments were undertaken.
To determine the propensity for deamination of the APN nucleosides by adenosine deaminase, nucleoside compounds were incubated with the commercially available purified enzyme, and the reaction was followed spectrophotometrically. Reaction conditions were 50 mM potassium phosphate, pH 7.4, with 50 μM APN nucleoside in 0.5 mL at 25° C. Reaction time was 7 minutes with 0.002 units of enzyme and 120 minutes with 0.2 units of enzyme. (The unit definition of adenosine deaminase is one unit will deaminate 1.0 μmol of adenosine to inosine per minute at pH 7.5 at 25° C.) Deoxyadenosine was the positive control which was 59% deaminated under the given conditions in 7 minutes with 0.002 units of enzyme. Deoxyguanosine was the negative control. Optical density was measured at 265 nm or 285 nm. The difference in optical density between the beginning and the end of the experiment was divided by the extinction coefficient then multiplied by the volume of the reaction to determine the number of mols of substrate transformed into product. Mols of product were divided by mols of substrate equivalent to a 100% complete reaction then multiplied by 100 to obtain percent deamination. The limit of detection was 0.001 optical density units.

Series [2] deals with HSV-1. As to the kind of experiment: HSV-1 drug susceptibility assay. The format is cell-based. The text has this:
Agents Chemother. […] K., Otto, M. J., Schinazi, R. F. “Antiviral activities and cellular toxicities of modified 2′,3′-dideoxy-2′,3′-didehydrocytidine analogs” Antimicrob. Agents Chemother. 2002, 46, 3854-60. • ^cHSV-1 drug susceptibility assay was done as previously described in: Schinazi, R. F., Peters, J., Williams, C. C., Chance, D., Nahmias, A. J. “Effect of combinations of acyclovir with vidarabine or its 5′-monophosphate on herpes simplex virus in cell culture and in mice.” Antimicrob. Agents Chemother. 1982, 22, 499-507. • ^dHCV Replicon Assay^1: Huh 7 Clone B cells containing HCV Replicon RNA were seeded in a 96-well plate at 5000 cells/well, and the compounds were tested at 10 μM in triplicate immediately after seeding. Following five days incubation (37° C., 5% CO2), total cellular RNA was isolated by using versaGene RNA purification kit from Gentra. Replicon RNA and an internal control (TaqMan rRNA control reagents, Applied Biosystems) were amplified in a single step multiplex Real Time RT-PCR Assay. The antiviral effectiveness of the compounds was calculated by subtracting the threshold RT-PCR cycle of the test compound from the threshold RT-PCR cycle of the no-drug control (ΔCtHCV). A ΔCt of 3.3 equals a 1-log reduction (equal to 90% less starting material) in Replicon RNA levels. The cytotoxicity of the compounds was also calculated by using the ΔCt rRNA values. 77 (2′-Me-C) was used as the control. To determine EC90 and IC50 values^2, ΔCt: values were first converted into fraction of starting material^3 and then were used to calculate the % inhibition.

Series [3] deals with Vero cells. As to the kind of experiment: Cytotoxicity assay in Vero cells. The format is cell-based.
For series [4], the system named is HIV-1/LAI. As to the kind of experiment: Anti-HIV-1 assay in PBM cells. The series is classed as cell-based. On the procedure:
Stock solutions (20-40 mM) of the compounds were prepared in sterile DMSO and then diluted to the desired concentration in growth medium. Cells were infected with the prototype HIV-1LAI at a multiplicity of infection of 0.01. Virus obtained from the cell supernatant was quantified on day 6 after infection by a reverse transcriptase assay using (rA)n·(dT)12-18 as template-primer. […] The antiviral EC50 and EC90 were obtained from the concentration-response curve using the median effective method described previously (see Chou T.-C. & Talalay P. Adv. Enzyme Regul. 1984, 22, 27-55; Belen'kii M. S. & Schinazi R. F. Antiviral Res. 1994, 25, 1-11).

Series [5] concerns HIV-2/pROD10. As to the kind of experiment: HIV-2 drug susceptibility in PBM cells. The format is cell-based. Conditions: Human immunodeficiency virus 2, PBMC.
In series [6] the test system is HBV. As to the kind of experiment: Anti-HBV assay (AD-38 cell line). The series is classed as cell-based. The following applies: Hepatitis B virus. The protocol: The anti-HBV activity of the compounds was determined by treating the AD-38 cell line carrying wild type HBV under the control of tetracycline (see Ladner S. K., Otto M. J., Barker C. S., Zaifert K., Wang G. H., Guo J. T., Seeger C. & King R. W. Antimicrob. Agents Chemother. 1997, 41, 1715-20). Removal of tetracycline from the medium [Tet (−)] results in the production of HBV. The levels of HBV in the culture supernatant fluids from cells treated with the compounds were compared with that of the untreated controls. Control cultures with tetracycline [Tet (+)] were also maintained to determine the basal levels of HBV expression.

The subject of series [7] is PBM cells. Conditions: human, 4 h, 50 μM.
Series [8] deals with PBM cells. Briefly: Cytotoxicity assay in PBM cells. The series is classed as cell-based, human. Conditions: Tables 2-4; read-out: PBM IC50.
Series [9] has as its system CEM cells. Briefly: Cytotoxicity assay in CEM cells. The format is cell-based, human. Conditions: Tables 2-4; read-out: CEM IC50.
[10] abbreviates: 50 μM nucleoside, pH 7.4, 25° C., 0.002 units enzyme.
The mark [11] stands for this setting: 50 μM nucleoside, pH 7.4, 25° C., 0.2 units enzyme.
The mark [12] stands for this setting: Human immunodeficiency virus 1, PBMC, PBM cells, read-out: HIV-1/LAI (PBM) EC50.
The mark [13] stands for this setting: Human immunodeficiency virus 1, PBMC, PBM cells, read-out: HIV-1/LAI (PBM) EC90.

pEC50, pIC50: −log10 of the molar value. Where two headings read alike, the source gives them in different places. Bounds are passed on as bounds.

For the compound `Nc1ncnc2c1ncn2[C@H]1C[C@H](O)[C@@H](CO)O1` [2Õ-deoxy- adenosine, Deoxyadenosine, reference compound], the “Deamination in 7 min (0.002 units Adenosine Deaminase)” value (shortened to “Deamination in 7 min”) in series [1] (setting [10]) came out at 59.30%; in series [1] (50 μM nucleoside, pH 7.4, 25° C., 0.002 units enzyme, listed as Deoxyadenosine) it was 59%. Besides, the “Deamination in 120 min (0.2 units Adenosine Deaminase)” value (shortened to “Deamination in 120 min”) in [1] (setting [11]) is 105.50%.
As to `Nc1nc(O)c2ncn([C@H]3C[C@H](O)[C@@H](CO)O3)c2n1` [2Õ-deoxy- guanosine, Deoxyguanosine, reference compound], in [1] (setting [10]), the “Deamination in 7 min” value was “below level of detection”. In series [1] (setting [11]), the “Deamination in 120 min” value was “below level of detection”.
The pIC50 is the negative decadic logarithm of the IC50, by convention in mol/L. In the case of `Nc1nc2c(ncn2COCCO)c(=O)[nH]1` [ACV, reference compound], in [2], the pEC50 is 6.80 and the EC90 was determined as 420 nM. The pIC50 in series [3] (Table 5, read-out: Toxicity IC50 Vero) is less than 4.00.
As to `C=CCNc1nc(N)nc2c1ncn2[C@H]1CC(N=[N+]=[N-])[C@@H](CO)O1` (stereo partly drawn) [Compound 62, 2-Amino-9-(3′-azido-2′,3′-dideoxy-β-D-erythro-pentofuranosyl)-6-allylamino-9H-purine], the “Deamination in 120 min” value in series [1] (50 μM, pH 7.4) is listed as 7.60%. The pEC50 in series [4] (setting [12]) was 6.30; in [5], 6.15; in series [6], less than 5.00. For the same compound, the EC90 in series [4] (setting [13]) is 4.3 µM; in [5], 7.4 µM; in series [6], greater than 10 µM. Moreover, the “nucleotides detected (LC/MS)” value in series [7] was “detection of RFS-457-DP and RFS-457-TP”. In addition, the “species not detected (LC/MS)” value in series [7] was “No RFS-427, RFS-427-MP, RFS-427-DP, or RFS-427-TP were detected”.
As for `C=CCN(C)c1nc(N)nc2c1ncn2[C@H]1CC(N=[N+]=[N-])[C@@H](CO)O1` (stereo partly drawn) [Compound 63, 2-Amino-9-(3′-azido-2′,3′-dideoxy-β-D-erythro-pentofuranosyl)-6-N-methylallylamino-9H-purine], the pEC50 in series [4] (setting [12]) is 6.40; in series [5] it was 5.62; in [6] it was less than 5.00. The values for the EC90 in series [4] (setting [13]), in [5] and in [6] were 1.5 µM, 6.1 µM and greater than 10 µM, respectively. Further, the “nucleotides detected (LC/MS)” value in series [7] is on record as “detection of RFS-457-TP”. Moreover, in [7], the “species not detected (LC/MS)” value was “No RFS-464, RFS-464-MP, RFS-464-DP, or RFS-464-TP were detected”.
Regarding `[N-]=[N+]=NC1C[C@H](n2cnc3c(NCCCCCO)nc(N)nc32)O[C@@H]1CO` (stereo partly drawn) [Compound 64, 2-Amino-9-(3′-azido-2′,3′-dideoxy-β-D-erythro-pentofuranosyl)-6-aminopentanol-9H-purine], the pEC50 was 4.06 in series [4] (Human immunodeficiency virus 1, PBMC, read-out: HIV-1/LAI (PBM) EC50, PBM cells); less than 4.00 in series [5]; less than 5.00 in series [6]. For the same compound, the EC90 in [4] (Human immunodeficiency virus 1, PBMC, read-out: HIV-1/LAI (PBM) EC90, PBM cells) is greater than 10 µM; in [5] it was greater than 100 µM; in [6] it was greater than 10 µM.
Turning to `CC(C)(CO)Nc1nc(N)nc2c1ncn2[C@H]1CC(N=[N+]=[N-])[C@@H](CO)O1` (stereo partly drawn) [Compound 65, 2-Amino-9-(3′-azido-2′,3′-dideoxy-β-D-erythro-pentofuranosyl)-6-N-2-methyl-2-amino-propanol-9H-purine], the results for the pEC50 in series [4] (setting [12]), in series [5] and in [6] were 4.28, less than 4.00 and less than 5.00, respectively. Besides, the EC90 was greater than 10 µM in series [4] (setting [13]), greater than 100 µM in series [5] and greater than 10 µM in series [6].
For `CC(CO)Nc1nc(N)nc2c1ncn2[C@H]1CC(N=[N+]=[N-])[C@@H](CO)O1` (some centres unmarked) [Compound 67], the pEC50 in series [4] (setting [12]) is 4.22; in [5], 4.29; in series [6] it was less than 5.00. Further, the EC90 in series [4] (setting [13]) is greater than 10 µM; in series [5] it was greater than 100 µM; in [6], greater than 10 µM.
Turning to `CN(C)c1nc(N)nc2c1ncn2[C@H]1CC(N=[N+]=[N-])[C@@H](CO)O1` (some centres unmarked) [Compound 69], in series [1], the “Conversion by / stability to adenosine deaminase” value was “stable to adenosine deaminase”. Also, the pEC50 in series [4] (setting [12]) is 6.68; in series [5] it was 5.60; in series [6] it was less than 5.00. Also, the results for the EC90 in series [4] (setting [13]), in series [5] and in series [6] were 1.05 µM, 5.9 µM and greater than 10 µM, respectively.
For `COc1nc(N)nc2c1ncn2[C@H]1CC(N=[N+]=[N-])[C@@H](CO)O1` (some centres unmarked) [Compound 70], in series [1] (50 μM, pH 7.4), the “Deamination in 7 min” value was found to be 0.55 ± 5.8% and the “Deamination in 120 min” value came out at 130.22 ± 4.72%. In series [7], the “nucleotides detected (LC/MS)” value was “detection of RFS-506-DP, RFS-457-DP, and RFS-457-TP”; the “species not detected (LC/MS)” value is “No RFS-506, RFS-506-MP, or RFS-506-TP were detected”.
With `[N-]=[N+]=NC1C[C@H](n2cnc3c(NC4CC4)nc(N)nc32)O[C@@H]1CO` (some centres unmarked) [Compound 72], in series [1] (50 μM, pH 7.4), the “Deamination in 7 min” value turned out to be 0.56% and the “Deamination in 120 min” value turned out to be 33.40%. Further, in [4] (setting [12]), the pEC50 was 5.82. Moreover, the EC90 in series [4] (setting [13]) was found to be 8.8 µM. Further, in [5], the pEC50 is 5.51 and the EC90 turned out to be 15.8 µM. In addition, in series [6], the pEC50 is less than 5.00 and the EC90 is greater than 10 µM. Further, in [7], the “nucleotides detected (LC/MS)” value was “detection of RFS-457-DP and RFS-457-TP”; the “species not detected (LC/MS)” value is “No RFS-512, RFS-512-MP, RFS-512-DP, or RFS-512-TP were detected”.
For `[N-]=[N+]=NC1C[C@H](n2cnc3c(N)nc(N)nc32)O[C@@H]1CO` (stereo partly drawn) [Compound 73, β-D-3′-azido-2,6-diamino-2′,3′-dideoxypurine], in series [7], the major metabolite result is recorded as “RFS-457-TP as the major metabolite”; the “nucleotides detected (LC/MS)” value is “detection of RFS-457, RFS-457-MP, RFS-457-DP, RFS-457-TP RFS-667-DP, and RFS-667-TP”; the “species not detected (LC/MS)” value is listed as “No RFS-667 or RFS-667-MP were detected”.
With `COCCNc1nc(N)nc2c1ncn2[C@H]1CC(N=[N+]=[N-])[C@@H](CO)O1` (some centres unmarked) [Compound 74], the pEC50 in series [4] (setting [12]) was 5.68. For the same compound, the EC90 in series [4] (setting [13]) came out at 16.2 µM.
On to `CCOC(=O)[C@H](C)NP(=O)(OC[C@H]1O[C@@H](n2cnc3c(N)nc(N)nc32)CC1N=[N+]=[N-])Oc1ccccc1` (some centres unmarked) [RS-783], for which, in series [4] (Tables 2-4, n = 3 for the MP prodrugs, read-out: HIV EC50), the pEC50 was 8.47. Besides, in series [4] (Tables 2-4, n = 3 for the MP prodrugs, read-out: HIV EC90), the EC90 amounted to 0.035 µM. The pIC50 is 5.02 in series [8]; 4.92 in [9]; less than 4.00 in series [3] (Chlorocebus sabaeus, Vero, read-out: Vero IC50).
